# Test results reported in patent US10953040B2, “Methods of treating bacterial infections with penam β-lactam antibiotics and branched poly(ethylenimine)” (priority 2015, dated 2021).
# Several values for one entry are separate records, joined by “and”; a condition that tells them apart may be missing. Identical values can stand only once. Entries after “also recorded” stand apart in the source; their conditions may differ. Like-named read-outs stand apart in the source and are kept apart here.
# Key:
# Assay type in all cases: cell-based
# [1] = tested on: methicillin-resistant Staphylococcus aureus (MRSA) strain ATCC 700787; test: MRSA checkerboard growth inhibition assay with FIC; details: for MIC: Staphylococcus aureus; for interaction with BPEI by FIC values (synergy / additive): OD600<0.05 = growth inhibition; for OD600 of growth media: 20 hours
# From the text: The fractional inhibitory concentration (FIC) as used herein is a measure of the interaction of two agents, such as an antibiotic and a BPEI compound, used together, and is an indicator of synergy. FIC uses a value of the MIC of each of the independent agents, e.g., MICA and MICB for agents A and B, for a particular bacterium as the basis, then takes the concentration of each component in a mixture where an MIC(A in B) is observed. For example, for a two component system of agents A and B, MIC(A in B) is the concentration of A in the compound mixture and MIC(B in A) is the concentration of B in the compound mixture. The FIC is defined as follows: FICA=(MIC(A in B)/MICA) Eqn. 1 FICB=(MIC(B in A)/MICB) Eqn. 2 FICA+B=FICA+FICB Eqn. 3
# Synergism (i.e., the two compounds together provide a synergistic effect) is defined herein as occurring when FICA+B≤0.5. The mixture is defined as having an additive effect when […]. When, FICA+B>4 the mixture is considered to have an antagonistic interaction. An example of how FIC is used to determine synergism is shown in U.S. Pat. No. 8,338,476, the entirety of which is incorporated herein by reference in its entirety.
# (§1) A stock culture was diluted in tryptic soy broth (TSB) and delivered into pre-sterilized 96-well plates. Stock solutions of BPEI and antibiotics, prepared in DMSO, were added to each well of a 96-well plate (final DMSO concentration was 1%), followed by inoculation with MRSA in TSB. Optical density measurements were performed with a Tecan Infinite M200 plate reader and an initial OD600 value recorded. The plates were incubated for 20 h in a humidified incubator at 37° C. Plates were removed, orbitally shaken, and a final OD600 value recorded. […] to obtain the change in OD600 (recorded in the figures as ΔOD600). Antimicrobial activity was determined by the change in optical density. Duplicate measurements were performed and the average reported.
# (§2) Using the average ΔOD600 values, separate MIC values for BPEI and ampicillin were determined by the lowest concentration of each that inhibited growth.
# [2] = tested on: methicillin-resistant Staphylococcus aureus (MRSA) strain ATCC 700787; test: microbe, parasite or virus in culture; details: for MIC / concentration inhibiting MRSA growth: FIG. 6-8; for synergy with BPEI / change of efficacy against MRSA on addition of BPEI: BPEI 2.65 μg/mL, FIG. 6-10; for MIC: Staphylococcus aureus
# Protocol: as §1, §2
# [3] = tested on: Escherichia coli ATCC 11775; test: E. coli growth inhibition assay (ΔOD600 after 20 h)
# Protocol: (§3) The bacteria used in this work were obtained from the American Type Culture Collection (methicillin-resistant Staphylococcus aureus (MRSA) strain ATCC 700787, Staphylococcus aureus ATCC 25923, Escherichia coli ATCC 11775, Bacillus subtilis (Ehrenberg) Cohn ATCC 23059). Chemicals from Sigma-Aldrich (e.g., DMSO, ampicillin, methicillin, vancomycin, chloramphenicol, and novobiocin) were used as purchased.
# as §1
# [4] = tested on: Staphylococcus aureus ATCC 25923; test: non-resistant S. aureus growth inhibition assay (ΔOD600 after 20 h); details: ATCC25923, ampicillin by itself, FIG. 14
# Protocol: as §3, §1
# [5] = without BPEI, checkerboard FIG. 18-21, read-out: MIC
# [6] = with BPEI 2.65 μg/mL (2.7 μg/mL)
structure (smiles),measurement,setting,value
COc1cccc(OC)c1C(=O)N[C@@H]1C(=O)N2[C@@H]1SC(C)(C)[C@@H]2C(=O)O [methicillin],MIC,[1]; [5],> 32 µg/mL
same,interaction with BPEI by FIC values (synergy / additive),[1]; checkerboard FIG. 18-21,Synergy occurred
same,MIC / concentration inhibiting MRSA growth,[2]; antibiotic without BPEI,> 60 µg/mL
same,MIC / concentration inhibiting MRSA growth,[2]; [6],30 µg/mL
CO[C@@H]1[C@@H](OC(N)=O)[C@@H](O)[C@H](Oc2ccc3c(O)c(NC(=O)c4ccc(O)c(CC=C(C)C)c4)c(=O)oc3c2C)OC1(C)C [novobiocin],synergy with BPEI / change of efficacy against MRSA on addition of BPEI,[2],did not show any synergy; also recorded: not substantially altered
O=C(N[C@H](CO)[C@H](O)c1ccc([N+](=O)[O-])cc1)C(Cl)Cl [chloramphenicol],synergy with BPEI / change of efficacy against MRSA on addition of BPEI,[2],large synergy; also recorded: dramatic synergistic effect
same,MIC / concentration inhibiting MRSA growth,[2]; antibiotic without BPEI,50 µg/mL
same,decrease in the MIC,"[2]; on addition of 2.7 μg/mL BPEI, FIG. 8",10 fold
same,MIC / concentration inhibiting MRSA growth,[2]; [6],5 µg/mL
CC1(C)S[C@@H]2[C@H](NC(=O)[C@H](N)c3ccccc3)C(=O)N2[C@H]1C(=O)O [ampicillin],MIC,"[1]; with BPEI 8 μg/mL, Table 1, read-out: ampicillin MIC",8 µg/mL
same,MIC,"[1]; with low-Mw BPEI 16 μg/mL, Table 1, read-out: ampicillin MIC",1 µg/mL
same,MIC,"[1]; without BPEI, Table 1, read-out: ampicillin MIC",32 µg/mL
same,MIC,[1]; [5],> 32 µg/mL
same,OD600 of growth media,[1]; ampicillin 0.125 + BPEI 0 μg/mL,0.4361
same,OD600 of growth media,[1]; ampicillin 0.250 + BPEI 0 μg/mL,0.4282
same,OD600 of growth media,[1]; ampicillin 0.500 + BPEI 0 μg/mL,0.4342
same,OD600 of growth media,[1]; ampicillin 1 + BPEI 0 μg/mL,0.4289
same,OD600 of growth media,[1]; ampicillin 2 + BPEI 0 μg/mL,0.4294
same,OD600 of growth media,[1]; ampicillin 4 + BPEI 0 μg/mL,0.4375
same,OD600 of growth media,[1]; ampicillin 8 + BPEI 0 μg/mL,0.4344
same,OD600 of growth media,[1]; ampicillin 16 + BPEI 0 μg/mL,0.3287
same,OD600 of growth media,[1]; ampicillin 32 + BPEI 0 μg/mL,0.0003
same,OD600 of growth media,[1]; ampicillin 64 + BPEI 0 μg/mL,0.0014
same,interaction with BPEI by FIC values (synergy / additive),[1]; checkerboard FIG. 18-21,synergistic activity; also recorded: Synergy
same,factor by which the ampicillin MIC is lowered,[1]; with low-Mw BPEI 16 μg/mL,32 ×
same,MIC,"[3]; ATCC11775, ampicillin alone, FIG. 12",3.7 µg/mL
same,MIC,"[3]; ATCC11775, with BPEI 2.65 μg/mL, FIG. 12, read-out: MIC for ampicillin",3.7 µg/mL
same,MIC,"[2]; read-out: MIC for ampicillin, with BPEI 2.7 μg/mL, FIG. 2",12 to 25 µg/mL
same,MIC,"[2]; read-out: MIC for ampicillin, with BPEI 26 μg/mL, FIG. 5",~1.2 µg/mL
same,MIC,"[2]; read-out: MIC for ampicillin, without BPEI, FIG. 2",> 50 µg/mL
same,MIC,"[2]; read-out: MIC for ampicillin, without BPEI, FIG. 3 (second data set)",50 µg/mL
same,MIC,[4],~0.05 µg/mL
CC1(C)S[C@@H]2[C@H](NC(=O)[C@H](N)c3ccc(O)cc3)C(=O)N2[C@H]1C(=O)O [amoxicillin],MIC,[1]; [5],> 32 µg/mL
same,interaction with BPEI by FIC values (synergy / additive),[1]; checkerboard FIG. 18-21,synergistic activity
same,MIC / concentration inhibiting MRSA growth,[2]; antibiotic without BPEI,58 µg/mL
same,MIC / concentration inhibiting MRSA growth,[2]; [6],30 µg/mL and 29 µg/mL
CN[C@H](CC(C)C)C(=O)N[C@H]1C(=O)N[C@@H](CC(N)=O)C(=O)N[C@H]2C(=O)N[C@H]3C(=O)N[C@H](C(=O)N[C@H](C(=O)O)c4cc(O)cc(O)c4-c4cc3ccc4O)[C@H](O)c3ccc(c(Cl)c3)Oc3cc2cc(c3O[C@@H]2O[C@H](CO)[C@@H](O)[C@H](O)[C@H]2O[C@H]2C[C@](C)(N)[C@H](O)[C@H](C)O2)Oc2ccc(cc2Cl)[C@H]1O [vancomycin],MIC,[1],4 µg/mL
same,interaction with BPEI by FIC values (synergy / additive),[1]; checkerboard FIG. 18-21,additive
same,synergy with BPEI / change of efficacy against MRSA on addition of BPEI,[2],did not show any synergy; also recorded: does not change
